Several values for one entry are separate records, joined by “and”; a condition that tells them apart may be missing. Equal entries are not always repeated. Inconclusive results and toxic doses are left out. Rule as the data show it: active = T/C of 150% or more; inactive = T/C below 125%.
System: L1210 leukemia ip in BDF1 mice, survival T/C
Assay: NCI In Vivo Anticancer Drug Screen. Data for tumor model L1210 Leukemia (intraperitoneal) in B6D2F1 (BDF1) mice
Details: endpoint: mean survival time, higher = longer survival
Outline: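 Read-out is survival time, reported as the treated-group measurement over the vehicle-control measurement.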

[1] = dose: 100.0 mg/kg/injection, schedule: Q01DX001 (ip), vehicle: saline
[2] = dose: 400.0 mg/kg/injection, schedule: Q01DX001 (ip), vehicle: saline
[3] = dose: 100.0 mg/kg/injection, schedule: Q01DX001 (ip), vehicle: saline with Tween-80
[4] = dose: 100.0 mg/kg/injection, schedule: Q01DX009 (ip), vehicle: Klucel (hydroxypropylcellulose) (HPC)
[5] = dose: 100.0 mg/kg/injection, schedule: Q04DX003 (ip), vehicle: Klucel (hydroxypropylcellulose) (HPC)
[6] = dose: 200.0 mg/kg/injection, schedule: Q01DX009 (ip), vehicle: Klucel (hydroxypropylcellulose) (HPC)
[7] = dose: 200.0 mg/kg/injection, schedule: Q04DX003 (ip), vehicle: Klucel (hydroxypropylcellulose) (HPC)
[8] = dose: 400.0 mg/kg/injection, schedule: Q01DX009 (ip), vehicle: Klucel (hydroxypropylcellulose) (HPC)
[9] = dose: 400.0 mg/kg/injection, schedule: Q04DX003 (ip), vehicle: Klucel (hydroxypropylcellulose) (HPC)
[10] = dose: 100.0 mg/kg/injection, schedule: Q01DX009 (ip), vehicle: saline with Tween-80
[11] = dose: 100.0 mg/kg/injection, schedule: Q04DX002 (ip), vehicle: Klucel (hydroxypropylcellulose) (HPC)
[12] = dose: 400.0 mg/kg/injection, schedule: Q04DX002 (ip), vehicle: Klucel (hydroxypropylcellulose) (HPC)
[13] = dose: 200.0 mg/kg/injection, schedule: Q01DX001 (ip), vehicle: saline

Measured: T/C

O=C1c2ccccc2C(O)N1c1ccccc1 (configuration not stated)
inactive: [1] 86 % of control | [2] 104 % of control

CCCCCCCCP(=O)(CCCC)CCCCCCCC
inactive: dose: 25.0 mg/kg/injection, schedule: Q01DX001 (ip), vehicle: saline with Tween-80 100 % of control | dose: 50.0 mg/kg/injection, schedule: Q01DX001 (ip), vehicle: saline with Tween-80 101 % of control | [3] 100 % of control and 104 % of control

NC(=O)c1ccc(C(F)(F)F)cc1O
inactive: [4] 95 % of control | [5] 100 % of control | [6] 95 % of control | [7] 97 % of control | [8] 95 % of control | [9] 95 % of control

ClC1=C(Cl)C(Cl)(Cl)C(Cl)=C1Cl
inactive: dose: 0.25 mg/kg/injection, schedule: Q04DX002 (ip), vehicle: Klucel (hydroxypropylcellulose) (HPC) 103 % of control | dose: 0.5 mg/kg/injection, schedule: Q04DX002 (ip), vehicle: Klucel (hydroxypropylcellulose) (HPC) 107 % of control | dose: 1.0 mg/kg/injection, schedule: Q04DX002 (ip), vehicle: Klucel (hydroxypropylcellulose) (HPC) 88 % of control

O=c1[nH]cnc2c1ncn2C1SC(CO)C(O)C1O (configuration not stated)
inactive: dose: 100.0 mg/kg/injection, schedule: Q01DX005 (ip), vehicle: saline 103 % of control | dose: 200.0 mg/kg/injection, schedule: Q01DX005 (ip), vehicle: saline 106 % of control

CN(CC#CCOc1ccc(Cl)cc1)c1ccccc1
inactive: dose: 12.5 mg/kg/injection, schedule: Q01DX001 (ip), vehicle: carboxymethylcellulose (CMC) 96 % of control | dose: 12.5 mg/kg/injection, schedule: Q01DX009 (ip), vehicle: carboxymethylcellulose (CMC) 97 % of control and 90 % of control | dose: 12.5 mg/kg/injection, schedule: Q04DX002 (ip), vehicle: carboxymethylcellulose (CMC) 93 % of control and 106 % of control | dose: 12.5 mg/kg/injection, schedule: Q04DX003 (ip), vehicle: carboxymethylcellulose (CMC) 103 % of control | dose: 25.0 mg/kg/injection, schedule: Q01DX001 (ip), vehicle: carboxymethylcellulose (CMC) 96 % of control | dose: 25.0 mg/kg/injection, schedule: Q01DX009 (ip), vehicle: carboxymethylcellulose (CMC) 93 % of control | dose: 25.0 mg/kg/injection, schedule: Q04DX002 (ip), vehicle: carboxymethylcellulose (CMC) 93 % of control and 110 % of control | dose: 25.0 mg/kg/injection, schedule: Q04DX003 (ip), vehicle: carboxymethylcellulose (CMC) 102 % of control | dose: 50.0 mg/kg/injection, schedule: Q01DX001 (ip), vehicle: carboxymethylcellulose (CMC) 96 % of control | dose: 50.0 mg/kg/injection, schedule: Q01DX009 (ip), vehicle: carboxymethylcellulose (CMC) 93 % of control and 90 % of control | dose: 50.0 mg/kg/injection, schedule: Q04DX002 (ip), vehicle: carboxymethylcellulose (CMC) 92 % of control and 94 % of control | dose: 50.0 mg/kg/injection, schedule: Q04DX003 (ip), vehicle: carboxymethylcellulose (CMC) 97 % of control | dose: 100.0 mg/kg/injection, schedule: Q04DX002 (ip), vehicle: carboxymethylcellulose (CMC) 95 % of control | dose: 200.0 mg/kg/injection, schedule: Q04DX002 (ip), vehicle: carboxymethylcellulose (CMC) 88 % of control | dose: 400.0 mg/kg/injection, schedule: Q04DX002 (ip), vehicle: carboxymethylcellulose (CMC) 88 % of control

O=c1cc(/C=N/Nc2ccc([N+](=O)[O-])cc2[N+](=O)[O-])c2cccc3c2n1CCC3
inactive: [10] 93 % of control | dose: 100.0 mg/kg/injection, schedule: Q04DX003 (ip), vehicle: saline with Tween-80 98 % of control | dose: 200.0 mg/kg/injection, schedule: Q04DX003 (ip), vehicle: saline with Tween-80 101 % of control | dose: 400.0 mg/kg/injection, schedule: Q01DX009 (ip), vehicle: saline with Tween-80 93 % of control | dose: 400.0 mg/kg/injection, schedule: Q04DX003 (ip), vehicle: saline with Tween-80 102 % of control

Clc1cccc2c1Cc1c(Cl)cccc1C2
inactive: [3] 97 % of control | dose: 200.0 mg/kg/injection, schedule: Q01DX001 (ip), vehicle: saline with Tween-80 94 % of control | dose: 400.0 mg/kg/injection, schedule: Q01DX001 (ip), vehicle: saline with Tween-80 97 % of control

Cc1ccnc(NC(=O)Nc2ccccc2Cl)c1
inactive: [11] 90 % of control | dose: 200.0 mg/kg/injection, schedule: Q04DX002 (ip), vehicle: Klucel (hydroxypropylcellulose) (HPC) 93 % of control | [12] 118 % of control

C(=NCCCN1CCN(CCCN=Cc2ccc3c(c2)OCO3)CC1)c1ccc2c(c1)OCO2
inactive: dose: 25.0 mg/kg/injection, schedule: Q01DX Z (ip), vehicle: carboxymethylcellulose (CMC) 103 % of control | dose: 50.0 mg/kg/injection, schedule: Q01DX Z (ip), vehicle: carboxymethylcellulose (CMC) 109 % of control | dose: 100.0 mg/kg/injection, schedule: Q01DX Z (ip), vehicle: carboxymethylcellulose (CMC) 100 % of control | dose: 200.0 mg/kg/injection, schedule: Q01DX Z (ip), vehicle: carboxymethylcellulose (CMC) 97 % of control

CN=C(NO)c1ccccc1C
inactive: dose: 100.0 mg/kg/injection, schedule: Q01DX001 (ip), vehicle: carboxymethylcellulose (CMC) 100 % of control | dose: 200.0 mg/kg/injection, schedule: Q01DX001 (ip), vehicle: carboxymethylcellulose (CMC) 97 % of control

BrC(Br)c1cnc2ccccc2n1
inactive: dose: 50.0 mg/kg/injection, schedule: Q01DX009 (ip), vehicle: Klucel (hydroxypropylcellulose) (HPC) 107 % of control | [4] 92 % of control | [6] 101 % of control

COc1ccc2c(C(=O)CCC(=O)O)cccc2c1
inactive: dose: 100.0 mg/kg/injection, schedule: Q04DX003 (ip), vehicle: saline 104 % of control | dose: 200.0 mg/kg/injection, schedule: Q04DX003 (ip), vehicle: saline 95 % of control | dose: 400.0 mg/kg/injection, schedule: Q04DX003 (ip), vehicle: saline 106 % of control

O=[N+]([O-])c1cccc(-c2cc(-c3cccs3)cc(-c3ccccc3)n2)c1
inactive: dose: 100.0 mg/kg/injection, schedule: Q04DX002 (ip), vehicle: gum acacia 93 % of control | dose: 200.0 mg/kg/injection, schedule: Q04DX002 (ip), vehicle: gum acacia 93 % of control | dose: 400.0 mg/kg/injection, schedule: Q04DX002 (ip), vehicle: gum acacia 93 % of control

CC(C)(C)OC1C2C=CC1C1C2C2(Cl)C(Cl)=C(Cl)C1(Cl)C21OCCO1 (configuration not stated)
inactive: [11] 97 % of control | [12] 110 % of control

ClB(Cl)c1ccccc1
inactive: [1] 92 % of control | [13] 92 % of control | [2] 101 % of control

NC(CC(=O)O)C(=O)O.[Cu+2] (configuration not stated)
inactive: dose: 5.0 mg/kg/injection, schedule: Q01DX009 (ip), vehicle: Klucel (hydroxypropylcellulose) (HPC) 106 % of control | dose: 10.0 mg/kg/injection, schedule: Q01DX009 (ip), vehicle: Klucel (hydroxypropylcellulose) (HPC) 104 % of control | dose: 20.0 mg/kg/injection, schedule: Q01DX009 (ip), vehicle: Klucel (hydroxypropylcellulose) (HPC) 108 % of control | dose: 20.0 mg/kg/injection, schedule: Q04DX003 (ip), vehicle: Klucel (hydroxypropylcellulose) (HPC) 100 % of control

O=C(NC(Cc1ccccc1)C(=O)Oc1cc(Cl)c(Cl)cc1Cl)OCc1ccccc1 (configuration not stated)
inactive: dose: 100.0 mg/kg/injection, schedule: Q01DX001 (ip), vehicle: other 91 % of control | dose: 200.0 mg/kg/injection, schedule: Q01DX001 (ip), vehicle: other 91 % of control | dose: 400.0 mg/kg/injection, schedule: Q01DX001 (ip), vehicle: other 97 % of control

CCCCCCCCCCCCCCCCS(=O)(=O)c1ccc(S(=O)(=O)N/N=c2/sc3ccc(S(=O)(=O)O)cc3n2C)cc1C(=O)O
inactive: dose: 50.0 mg/kg/injection, schedule: Q01DX009 (ip), vehicle: saline with Tween-80 97 % of control | [10] 94 % of control

CCCCCCNc1c([N+](=O)[O-])cc(C)cc1[N+](=O)[O-]
inactive: [4] 100 % of control | [5] 103 % of control | [6] 111 % of control | [7] 116 % of control | [8] 96 % of control | [9] 108 % of control

CCN(CC)C(=O)Nc1ccc(O)c(C(=O)O)c1
inactive: [1] 98 % of control | [13] 95 % of control | [2] 96 % of control

CCOC(=O)c1ccc(C(=O)OCC)c(C#N)n1
inactive: [4] 102 % of control | [5] 100 % of control | [6] 97 % of control | [7] 93 % of control | [9] 95 % of control

CCOC(=O)C1C(=O)C=C(c2ccccc2)CC1c1ccccc1 (configuration not stated)
inactive: dose: 200.0 mg/kg/injection, schedule: Q04DX002 (ip), vehicle: saline with Tween-80 90 % of control | dose: 400.0 mg/kg/injection, schedule: Q04DX002 (ip), vehicle: saline with Tween-80 97 % of control
